Molecular target: T1, RhaD (L-rhamnulose-1-phosphate aldolase) (Escherichia coli, UniProt P32169)
T1 sequence (P32169 1-274): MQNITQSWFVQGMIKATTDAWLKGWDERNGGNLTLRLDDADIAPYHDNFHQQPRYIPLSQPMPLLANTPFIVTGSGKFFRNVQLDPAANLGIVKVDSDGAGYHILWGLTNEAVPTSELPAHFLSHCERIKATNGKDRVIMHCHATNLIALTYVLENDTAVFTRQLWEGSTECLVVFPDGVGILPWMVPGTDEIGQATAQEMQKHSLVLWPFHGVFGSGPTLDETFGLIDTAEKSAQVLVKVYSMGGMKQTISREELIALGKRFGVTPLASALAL
Experiment: aldol condensation, dephosphorylation, Bio-LC of sorbose and psicose
Type: biochemical
Settings: 50 mM Tris-HCl pH 7.0, 50 °C

| Compound | aldol condensation, dephosphorylation, Bio-LC of sorbose and psicose (co-substrate DHAP) | aldol condensation, dephosphorylation, Bio-LC of sorbose and psicose (co-substrate GA) |
| --- | --- | --- |
| O=C[C@H](O)CO [GA] | S1P and P1P were condensed from DHAP and GA using RhaD |  |
| O=C(CO)COP(=O)(O)O [dihydroxyacetone phosphate] |  | S1P and P1P were condensed from DHAP and GA using RhaD |
